Measurements reported in PubChem BioAssay (NCI).
Where “and” joins values, the source holds several entries; their conditions need not be identical. Identical values can stand only once.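 In this assay, cells in 96-well plates receive the compound at five concentrations for 48 hours. Endpoints are linearly interpolated between the surrounding concentrations. The concentration for 50% growth inhibition is given as GI50. TGI: concentration producing complete growth inhibition.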

How the values were obtained:
Assay in all cases: NCI tumour cell line growth inhibition, 48 h
RXF 393 renal = system: RXF 393 renal
OVCAR-8 ovarian = system: OVCAR-8 ovarian
RPMI-8226 leukemia = system: RPMI-8226 leukemia
HS 578T breast = system: HS 578T breast
TK-10 renal = system: TK-10 renal
K-562 leukemia = system: K-562 leukemia
SNB-75 CNS = system: SNB-75 CNS
NCI-H460 lung = system: NCI-H460 lung
HCC-2998 colon = system: HCC-2998 colon
M14 melanoma = system: M14 melanoma

| SMILES | GI50 (RXF 393 renal) | TGI (RXF 393 renal) | GI50 (OVCAR-8 ovarian) | TGI (OVCAR-8 ovarian) | GI50 (RPMI-8226 leukemia) | TGI (RPMI-8226 leukemia) | GI50 (HS 578T breast) | TGI (HS 578T breast) | GI50 (TK-10 renal) | TGI (TK-10 renal) | GI50 (K-562 leukemia) | TGI (K-562 leukemia) | GI50 (SNB-75 CNS) | TGI (SNB-75 CNS) | GI50 (NCI-H460 lung) | TGI (NCI-H460 lung) | GI50 (HCC-2998 colon) | TGI (HCC-2998 colon) | GI50 (M14 melanoma) | TGI (M14 melanoma) |
| --- | --- | --- | --- | --- | --- | --- | --- | --- | --- | --- | --- | --- | --- | --- | --- | --- | --- | --- | --- | --- |
| Nc1ccccc1C#C/C=C\C#Cc1ccccc1C#CCO | 9.25 µM | 32.1 µM | 8.36 µM | 27.1 µM | 24.3 µM | > 50 µM | 8.89 µM | 27.8 µM | 11.8 µM | 27.5 µM | 11.1 µM | > 50 µM | 18 µM | 42.1 µM | 8.73 µM | 22 µM | 2.95 µM | 10.6 µM | 7.68 µM | 26 µM |
| C/C(=N\NC(=O)c1ccncc1)c1sc(-n2nc(-c3ccccc3)cc2-c2ccccc2)nc1C |  | > 31.6 µM |  | > 100 µM |  | > 31.6 µM |  | > 100 µM |  | > 31.6 µM |  | > 100 µM |  | > 100 µM |  | > 31.6 µM |  | > 31.6 µM |  | > 31.6 µM |
| Cc1ccc(N)cc1[As]=[As]c1cc(N)ccc1C (stereo unspecified) | 1.19 µM | 2.47 µM | 1.57 µM | 2.98 µM | 1.07 µM | 4.45 µM | 2.81 µM | > 100 µM | 1.47 µM | 2.81 µM | 0.341 µM | > 100 µM | 1.27 µM | 2.59 µM | 3.08 µM | 12.2 µM | 1.93 µM | 3.58 µM | 1.71 µM | 3.4 µM |
| COc1cccc2c1C(=O)c1c(O)c3c(c(O)c1C2=O)C[C@@](O)(C(=O)CO)CC3OC1CC(N)C(OC2CCCCO2)C(C)O1 (stereo partly specified) | 0.12 µM |  | 0.018 µM |  | 0.00394 µM |  |  | 1.11 µM | 0.0368 µM |  | 0.0247 µM | 6.58 µM | 0.0171 µM |  |  | 1.08 µM and 5.09 µM | 0.0457 µM |  | 0.0529 µM |  |
| O/N=C(\CC(O)(C(F)(F)F)C(F)(F)F)c1cccs1 |  | > 10 µM |  | > 10 µM |  | > 10 µM |  | > 10 µM |  | > 10 µM |  | > 10 µM |  | > 10 µM |  | > 10 µM |  | > 10 µM |  | > 10 µM |
| Cn1c(CCCC(=O)O)nc2cc(N(CCCl)CCCl)ccc21 | > 100 µM | > 100 µM | > 91.2 µM | > 100 µM | > 85.3 µM | > 100 µM | > 83.3 µM | > 100 µM | > 91.3 µM | > 100 µM | > 100 µM | > 100 µM | > 83.5 µM | > 100 µM | 58.7 µM | > 100 µM | > 65.7 µM | > 100 µM | > 65.5 µM | > 100 µM |
| CCc1nc(C)cn1C(=O)OCc1nc2nc(Cl)nc(N3CCOCC3)c2[nH]1 | 0.658 µM | 2.01 µM | 1.47 µM | 3.61 µM | 0.696 µM | 3.1 µM | 1.74 µM | 4.89 µM | 1.79 µM | 3.28 µM | 0.703 µM | > 100 µM | 0.579 µM | 2.06 µM | 1.7 µM | 3.76 µM | 1.84 µM | 3.44 µM | 1.27 µM | 3.1 µM |
| CCN(CC)CCNC(=O)c1cccc2c1-c1ccccc1C2=O | > 100 µM | > 100 µM | > 100 µM | > 100 µM | 66.3 µM | > 100 µM | > 100 µM | > 100 µM | > 100 µM | > 100 µM | > 100 µM | > 100 µM | > 100 µM | > 100 µM | > 100 µM | > 100 µM | > 100 µM | > 100 µM | > 100 µM | > 100 µM |
| Cn1ncc(C#N)c1-c1ccc2c(c1)CN([C@H](CN)Cc1cccc(F)c1)C2=O | 0.172 µM | 2.43 µM | 47.7 µM | > 100 µM | 2.34 µM | 18.3 µM | 0.322 µM | 11.4 µM | 0.787 µM | 24 µM | 27.4 µM | > 100 µM | 0.0925 µM | 3.09 µM | 0.752 µM | > 100 µM | 5.96 µM | > 100 µM | 14.2 µM | 57.1 µM |
| CC[C@@H](C)/C=C(C)/C=C/C(=O)c1c(O)c(-c2ccc(OC(=O)[C@@]34CC[C@@](C)(C(=O)O3)C4(C)C)cc2)cn(O)c1=O | 1.81 µM | > 50 µM | 1.76 µM | > 50 µM | 2.49 µM | > 50 µM | 3.33 µM | > 50 µM | 1.99 µM | > 50 µM | 1.57 µM | > 50 µM | 4.34 µM | > 50 µM | 1.28 µM | 7.56 µM | 3.65 µM | > 50 µM | 1.06 µM | 2.49 µM |
| CCN1CCN(c2nc(C)cc(NCc3cc(Nc4ccnc5cc(Cl)ccc45)ccc3F)n2)CC1 | 1.27 µM | 3 µM | 3.2 µM | 13.7 µM | 0.981 µM | 4.32 µM | 1.72 µM | 5.29 µM | 2.39 µM | 6.04 µM | 0.663 µM | 4.95 µM | 1.37 µM | 3.52 µM | 1.56 µM | 3.67 µM | 1.78 µM | 3.89 µM | 1.45 µM | 3.12 µM |
| Cc1ccc(C[As+](c2ccccc2)(c2ccccc2)c2ccccc2)cc1 | 1.62 µM | 11.4 µM | 0.599 µM | 15.3 µM | 0.218 µM | 3.24 µM | 2.19 µM | > 48.8 µM | 2.01 µM | 20.5 µM | 0.466 µM | 21.9 µM | 1.1 µM | 10.3 µM | 0.674 µM | 8.36 µM | 0.645 µM | 19.6 µM | 0.704 µM | 10.8 µM |
| COc1cc(C(=O)/C=C/c2cc(-c3ccc4c(c3)OCO4)n[nH]2)cc(OC)c1OC | 1.31 µM | 2.94 µM | 2.35 µM | 6.37 µM | 0.506 µM | 2.53 µM | 3.14 µM | 20.5 µM | 2.9 µM | 7.17 µM | 2.17 µM | > 100 µM | 2.4 µM | 7.27 µM | 1.81 µM | 3.77 µM | 2.02 µM | 4.07 µM | 2.91 µM | 9.2 µM |
